According to ChEMBL document CHEMBL1909046, “DrugMatrix in vitro pharmacology data”:

What was measured:
[1] = molecular target: T1, Angiotensin-converting enzyme (Oryctolagus cuniculus, UniProt P12822); format: tissue-based, Lung;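 further: enzymatic inhibition of angiotensin-converting enzyme measured with FAPGG as the substrate; in other assays of this panel Not Active means under 50% inhibition at 10 µM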
T1 sequence (P12822 whole entry): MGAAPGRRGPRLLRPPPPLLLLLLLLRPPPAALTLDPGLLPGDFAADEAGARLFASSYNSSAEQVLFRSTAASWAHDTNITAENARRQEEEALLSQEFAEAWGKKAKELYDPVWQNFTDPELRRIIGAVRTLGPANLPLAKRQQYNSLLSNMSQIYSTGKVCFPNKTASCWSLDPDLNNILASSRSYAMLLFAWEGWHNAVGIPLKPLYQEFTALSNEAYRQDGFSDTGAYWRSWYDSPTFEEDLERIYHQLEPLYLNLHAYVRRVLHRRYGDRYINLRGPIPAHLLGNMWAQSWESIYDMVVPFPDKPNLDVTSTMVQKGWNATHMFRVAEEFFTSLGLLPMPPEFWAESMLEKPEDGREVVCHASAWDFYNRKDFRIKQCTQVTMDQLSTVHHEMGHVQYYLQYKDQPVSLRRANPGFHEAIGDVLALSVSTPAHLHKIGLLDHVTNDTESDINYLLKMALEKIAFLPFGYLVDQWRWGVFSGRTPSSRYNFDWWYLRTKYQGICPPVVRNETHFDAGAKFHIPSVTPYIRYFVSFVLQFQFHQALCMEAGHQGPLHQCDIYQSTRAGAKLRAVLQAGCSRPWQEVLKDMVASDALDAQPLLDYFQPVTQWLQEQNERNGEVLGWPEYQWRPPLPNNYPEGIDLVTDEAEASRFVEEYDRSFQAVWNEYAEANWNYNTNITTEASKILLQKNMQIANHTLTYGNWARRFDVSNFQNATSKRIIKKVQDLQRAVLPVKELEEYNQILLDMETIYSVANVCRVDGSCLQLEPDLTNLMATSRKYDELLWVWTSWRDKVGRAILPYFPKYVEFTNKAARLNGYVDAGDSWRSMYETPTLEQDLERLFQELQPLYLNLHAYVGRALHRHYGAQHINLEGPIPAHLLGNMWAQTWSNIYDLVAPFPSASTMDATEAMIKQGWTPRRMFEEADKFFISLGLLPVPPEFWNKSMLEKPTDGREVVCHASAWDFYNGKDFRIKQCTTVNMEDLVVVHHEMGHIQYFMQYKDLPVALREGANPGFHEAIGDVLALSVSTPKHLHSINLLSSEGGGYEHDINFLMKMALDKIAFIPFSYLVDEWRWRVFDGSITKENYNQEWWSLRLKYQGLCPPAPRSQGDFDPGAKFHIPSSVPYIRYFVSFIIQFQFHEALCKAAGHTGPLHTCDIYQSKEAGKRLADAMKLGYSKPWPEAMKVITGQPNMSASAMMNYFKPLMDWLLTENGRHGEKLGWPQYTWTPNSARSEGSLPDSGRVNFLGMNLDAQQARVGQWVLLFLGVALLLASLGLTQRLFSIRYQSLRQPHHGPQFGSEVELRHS

[2] = molecular target: T2, 3-hydroxy-3-methylglutaryl-coenzyme A reductase (Homo sapiens, UniProt P04035); parameters: species or system Escherichia coli;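 further: enzyme inhibition assay of HMG-CoA reductase using radiolabeled [14C]HMG-CoA as substrate; in other assays of this panel Not Active means under 50% inhibition at 10 µM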
T2 sequence (P04035 whole entry): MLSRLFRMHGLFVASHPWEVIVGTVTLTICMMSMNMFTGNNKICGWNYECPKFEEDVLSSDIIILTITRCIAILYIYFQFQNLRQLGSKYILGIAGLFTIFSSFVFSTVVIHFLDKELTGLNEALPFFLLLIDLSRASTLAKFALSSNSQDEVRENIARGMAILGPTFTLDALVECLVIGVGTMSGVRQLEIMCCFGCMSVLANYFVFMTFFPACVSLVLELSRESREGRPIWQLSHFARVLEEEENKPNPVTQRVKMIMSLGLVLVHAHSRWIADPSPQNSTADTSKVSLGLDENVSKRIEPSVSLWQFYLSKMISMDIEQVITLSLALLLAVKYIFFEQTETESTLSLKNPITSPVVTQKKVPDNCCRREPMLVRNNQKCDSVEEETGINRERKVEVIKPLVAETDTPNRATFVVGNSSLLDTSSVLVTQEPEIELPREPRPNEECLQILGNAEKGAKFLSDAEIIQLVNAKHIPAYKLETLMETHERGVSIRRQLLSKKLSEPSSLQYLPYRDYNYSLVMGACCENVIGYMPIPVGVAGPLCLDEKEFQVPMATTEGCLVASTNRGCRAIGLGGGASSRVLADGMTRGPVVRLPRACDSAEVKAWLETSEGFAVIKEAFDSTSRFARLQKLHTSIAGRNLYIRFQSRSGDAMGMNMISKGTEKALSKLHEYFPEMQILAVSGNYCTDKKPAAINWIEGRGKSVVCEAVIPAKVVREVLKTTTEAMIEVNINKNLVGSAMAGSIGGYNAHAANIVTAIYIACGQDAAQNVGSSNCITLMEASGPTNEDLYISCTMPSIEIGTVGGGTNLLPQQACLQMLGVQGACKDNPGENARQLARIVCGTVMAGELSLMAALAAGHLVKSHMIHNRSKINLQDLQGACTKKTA

[3] = molecular target: Mitogen-activated protein kinase 3 (Homo sapiens, UniProt P27361); assay: DRUGMATRIX: Protein Serine/Threonine Kinase, ERK1 enzyme inhibition (substrate: Myelin Basic Protein); parameters: species or system Escherichia coli; conditions: Not Active = under 50% inhibition at 10 µM
Chain of Mitogen-activated protein kinase 3 (P27361 whole entry): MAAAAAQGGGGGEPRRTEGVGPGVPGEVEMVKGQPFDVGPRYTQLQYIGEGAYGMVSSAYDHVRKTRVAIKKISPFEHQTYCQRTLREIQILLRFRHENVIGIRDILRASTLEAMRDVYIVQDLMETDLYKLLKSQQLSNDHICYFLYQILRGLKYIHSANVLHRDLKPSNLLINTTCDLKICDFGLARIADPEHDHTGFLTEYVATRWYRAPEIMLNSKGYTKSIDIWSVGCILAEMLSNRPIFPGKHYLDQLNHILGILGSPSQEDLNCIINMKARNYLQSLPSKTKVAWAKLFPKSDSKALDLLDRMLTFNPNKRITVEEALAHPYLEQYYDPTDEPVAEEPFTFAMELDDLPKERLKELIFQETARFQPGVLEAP

[4] = DRUGMATRIX: Glutamate, Kainate radioligand binding (ligand: [3H] Kainic acid); format: cell membranes, Rattus norvegicus, Wistar, Brain, Membrane; conditions: Not Active = under 50% inhibition at 10 µM
[5] = molecular target: Mitogen-activated protein kinase 14 (Homo sapiens, UniProt Q16539); parameters: species or system Escherichia coli;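 further: inhibition of p38alpha enzyme activity in a biochemical kinase assay, with myelin basic protein serving as substrate; in other assays of this panel Not Active means under 50% inhibition at 10 µM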
Chain of Mitogen-activated protein kinase 14 (Q16539 whole entry): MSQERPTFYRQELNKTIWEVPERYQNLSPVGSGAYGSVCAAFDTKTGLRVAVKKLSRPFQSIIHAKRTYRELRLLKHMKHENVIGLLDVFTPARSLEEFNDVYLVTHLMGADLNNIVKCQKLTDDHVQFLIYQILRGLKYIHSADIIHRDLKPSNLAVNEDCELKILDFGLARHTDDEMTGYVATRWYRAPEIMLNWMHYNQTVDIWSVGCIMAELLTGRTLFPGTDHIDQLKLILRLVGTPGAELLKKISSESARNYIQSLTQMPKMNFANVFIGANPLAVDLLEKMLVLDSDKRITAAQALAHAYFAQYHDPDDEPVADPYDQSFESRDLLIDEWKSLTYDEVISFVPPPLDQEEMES

[6] = molecular target: T3, 5-hydroxytryptamine receptor 2C (Homo sapiens, UniProt P28335); assay: DRUGMATRIX: Serotonin (5-Hydroxytryptamine) 5-HT2C radioligand binding (ligand: [3H] Mesulergine); format: cell membranes, CHO-K1, Membrane; conditions: cho-k1; Not Active = under 50% inhibition at 10 µM
T3 sequence (P28335 whole entry): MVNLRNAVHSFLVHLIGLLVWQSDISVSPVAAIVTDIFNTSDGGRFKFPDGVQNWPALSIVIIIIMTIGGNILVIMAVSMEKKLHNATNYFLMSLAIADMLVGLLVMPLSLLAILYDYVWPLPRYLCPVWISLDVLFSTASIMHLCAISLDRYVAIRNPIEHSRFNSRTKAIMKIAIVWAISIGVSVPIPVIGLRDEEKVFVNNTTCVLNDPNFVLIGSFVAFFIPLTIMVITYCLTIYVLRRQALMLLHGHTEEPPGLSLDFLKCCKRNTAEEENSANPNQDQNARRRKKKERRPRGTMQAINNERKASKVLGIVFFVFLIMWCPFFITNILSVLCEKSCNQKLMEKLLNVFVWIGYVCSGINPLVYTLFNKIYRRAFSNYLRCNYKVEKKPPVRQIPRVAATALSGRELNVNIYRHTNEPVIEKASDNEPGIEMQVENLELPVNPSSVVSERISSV

Melanocortin receptor 3 = Melanocortin receptor 3 (Homo sapiens, UniProt P41968); format: cell membranes, HEK293, Membrane; conditions: hek293; further: in other assays of this panel Not Active means under 50% inhibition at 10 µM
Chain of Melanocortin receptor 3 (P41968 whole entry): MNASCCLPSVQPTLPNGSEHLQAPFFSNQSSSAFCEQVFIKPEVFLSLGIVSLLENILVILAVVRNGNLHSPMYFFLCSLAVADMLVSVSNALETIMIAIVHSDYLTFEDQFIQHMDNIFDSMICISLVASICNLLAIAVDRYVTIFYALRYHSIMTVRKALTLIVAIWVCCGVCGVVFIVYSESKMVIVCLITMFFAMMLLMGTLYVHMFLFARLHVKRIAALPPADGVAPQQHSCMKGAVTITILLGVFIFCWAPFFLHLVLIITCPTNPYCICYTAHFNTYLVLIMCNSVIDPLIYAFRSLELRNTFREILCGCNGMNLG

Row | Compound | IC50 [1] | IC50 [2] | IC50 [3] | IC50 [4] | Ki [4] | IC50 [5] | IC50 [6] | IC50 (Melanocortin receptor 3) | Ki [1] | Ki [2] | Ki [3] | Ki [5] | Ki [6] | Ki (Melanocortin receptor 3) | IC50 ([2]; read-out: IC50) [µM]
1 | Cc1nnc2n1-c1ccc(Cl)cc1C(c1ccccc1)=NC2 [ALPRAZOLAM] | Not Active | Not Active | Not Active | Not Active | Not Active | Not Active | Not Active | Not Active | – | – | – | – | – | – | –
2 | COC(=O)CCc1ccc(OCC(O)CNC(C)C)cc1 (stereo not drawn) [ESMOLOL] | Not Active | Not Active | Not Active | Not Active | Not Active | Not Active | Not Active | Not Active | – | – | – | – | – | – | –
3 | COc1ccc2cc3[n+](cc2c1OC)CCc1cc2c(cc1-3)OCO2.[Cl-] [BERBERINE CHLORIDE] | Not Active | Not Active | Not Active | Not Active | Not Active | Not Active | Not Active | Not Active | – | – | – | – | – | – | –
4 | NC(=O)C[S+]([O-])C(c1ccccc1)c1ccccc1 (stereo not drawn) [MODAFINIL] | Not Active | Not Active | Not Active | Not Active | Not Active | Not Active | Not Active | Not Active | – | – | – | – | – | – | –
5 | CC(C)=CCC/C(C)=C/CO [GERANIOL] | Not Active | Not Active | Not Active | Not Active | Not Active | Not Active | Not Active | Not Active | – | – | – | – | – | – | –
6 | NCCCC(O)(P(=O)(O)O)P(=O)(O)O [ALENDRONIC ACID] | Not Active | Not Active | Not Active | Not Active | Not Active | Not Active | Not Active | Not Active | – | – | – | – | – | – | –
7 | C[C@@H]1CC[C@@]2(OC1)O[C@H]1[C@@H](O)[C@H]3[C@@H]4CC[C@H]5C[C@@H](O[C@@H]6O[C@H](CO)[C@H](O[C@@H]7O[C@H](CO)C(O)[C@H](O[C@@H]8OC[C@@H](O)[C@H](O)[C@H]8O)[C@H]7O[C@@H]7O[C@H](CO)[C@H](O)[C@H](O[C@@H]8O[C@H](CO)[C@@H](O)[C@H](O)[C@H]8O)[C@H]7O)[C@H](O)[C@H]6O)[C@H](O)C[C@]5(C)[C@H]4CC[C@]3(C)[C@H]1[C@@H]2C (stereo partly drawn) [DIGITONIN] | Not Active | Not Active | Not Active | Not Active | Not Active | Not Active | Not Active | Not Active | – | – | – | – | – | – | –
8 | O=C1CN=C(c2ccccc2Cl)c2cc([N+](=O)[O-])ccc2N1 [CLONAZEPAM] | Not Active | Not Active | Not Active | Not Active | Not Active | Not Active | Not Active | Not Active | – | – | – | – | – | – | –
9 | AURANOFIN | Not Active | Not Active | Not Active | Not Active | Not Active | Not Active | Not Active | Not Active | Not Active | Not Active | Not Active | Not Active | Not Active | Not Active | –
10 | COC(=O)Nc1nc2ccc(C(=O)c3cccs3)cc2[nH]1 [NOCODAZOLE] | Not Active | Not Active | Not Active | Not Active | Not Active | Not Active | Not Active | Not Active | – | – | – | – | – | – | –
11 | C[C@H]1O[C@@H](n2cc(F)c(=O)[nH]c2=O)[C@H](O)[C@@H]1O [DOXIFLURIDINE] | Not Active | Not Active | Not Active | Not Active | Not Active | Not Active | Not Active | Not Active | – | – | – | – | – | – | –
12 | CC(C(=O)O)c1ccc2oc(-c3ccc(Cl)cc3)nc2c1 (stereo not drawn) [BENOXAPROFEN] | Not Active | Not Active | Not Active | Not Active | Not Active | Not Active | Not Active | Not Active | – | – | – | – | – | – | –
13 | GADOPENTETATE DIMEGLUMINE | Not Active | Not Active | Not Active | Not Active | Not Active | Not Active | Not Active | Not Active | Not Active | Not Active | Not Active | Not Active | Not Active | Not Active | –
14 | Nc1ccc2c3c(cccc13)C(=O)NC2=O | Not Active | Not Active | Not Active | Not Active | Not Active | Not Active | Not Active | Not Active | – | – | – | – | – | – | –
15 | C[n+]1ccccc1/C=N/O.[Cl-] [PRALIDOXIME CHLORIDE] | Not Active | Not Active | Not Active | Not Active | Not Active | Not Active | Not Active | Not Active | – | – | – | – | – | – | –
16 | COc1cc(N)c(Cl)cc1C(=O)NC1CCN(CCCOc2ccc(F)cc2)CC1OC (stereo not drawn) [CISAPRIDE] | Not Active | – | Not Active | Not Active | Not Active | Not Active | – | Not Active | – | – | – | – | – | – | 3.37
17 | CCCNCC(O)COc1ccccc1C(=O)CCc1ccccc1 (stereo not drawn) [PROPAFENONE] | Not Active | Not Active | Not Active | Not Active | Not Active | Not Active | – | Not Active | – | – | – | – | – | – | –
18 | CN1[C@@H]2CC[C@H]1C[C@@H](OC(=O)C(CO)c1ccccc1)C2 (stereo partly drawn) [ATROPINE] | Not Active | Not Active | Not Active | Not Active | Not Active | Not Active | – | Not Active | – | – | – | – | – | – | –
